The values below come from patent US4405743A, “Pyrazolylpyrimidine derivatives” (Hokko Chemical Industry Co., Ltd., priority 1981, dated 1983).

Like-named read-outs stand apart in the source and are kept apart here.

For series [1] the following is noted: Annual Report of the Takeda's Research Institute, Vol. 24, pages 250-258 (1965); cited from earlier work.
A further series has as its system Sphaerotheca friliginea. Kind of series: Effect of controlling cucumber powdery mildew, Experimental Example 4. It is filed as in vivo. The following applies: sprayed liquid 200 ppm, 10 days after inoculation. An outline of the steps: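 First-leaf cucumber seedlings (Sagami Hanpaku) in pots were sprayed with test liquid at set concentrations, then spray-inoculated with spore suspension the next day. Lesion area (%) was scored 10 days post-inoculation and converted to a control value. Phytotoxicity was also rated.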

The subject of the next series is rice blast. To be noted: Annual Report of the Takeda's Research Institute, Vol. 24, pages 250-258 (1965); cited from earlier work.
The next series relates to cucumber plant. The following applies: 200 ppm.
Series [2] has as its system rice plant. The following applies: blast prevention test, 200 ppm.
In another series the test system is Cochliobolus miyabeanus. Kind of series: Effect of controlling rice brown spot, Experimental Example 3. The following applies: sprayed liquid 500 ppm, 5 days after inoculation. It is filed as in vivo, Cochliobolus miyabeanus on rice plant (variety: Asahi).
Series [3] concerns Pyricularia oryzae. It is filed as in vivo, Pyricularia oryzae on rice plant (variety: Asahi). The following applies: rice blast, prevention; 200 ppm; 5 days after inoculation.
The subject of series [4] is rice plant. The following applies: 500 ppm.
In series [5] the test system is rice plant. To be noted: blast curative test, 200 ppm.
The subject of series [6] is Pyricularia oryzae. The series is classed as in vivo, Pyricularia oryzae on rice plant (variety: Asahi). To be noted: rice blast, curative treatment; sprayed liquid 200 ppm; 5 days after spraying.

Regarding `Cc1cc(SC#N)nc(-n2nc(C)cc2C)n1` [Comparative Chemical 3, 2-(3,5-dimethyl-1-pyrazolyl)-4-methyl-6-thiocyanopyrimidine], the chemical injury result in series [1] is recorded as “violent chemical injury”.

On to `Cc1cc(O)nc(-n2nc(C)cc2C)n1` [Comparative Chemical 1, 2-(3,5-dimethyl-1-pyrazolyl)-4-methyl-6-hydroxypyrimidine, reference compound], for which the Control Value in the series with Sphaerotheca friliginea was 53.2%; in the series with Cochliobolus miyabeanus, 75%; in the series with Pyricularia oryzae [3] it was 75%; in the series on Pyricularia oryzae [6], 70%. In addition, the “activity of controlling rice blast” value in the series with rice blast is reported as “show an activity of controlling rice blast”. In addition, the “Degree of chemical injury” value in the series on cucumber plant is on record as 1; in the series with rice plant [2], 5; in the series with rice plant [4], 5; in the series with rice plant [5], 5. The chemical injury entry in [1] is given as “violent chemical injury”.

Consider `Cc1cc(C)n(-c2nc(O)cc(-c3ccccc3)n2)n1` [Comparative Chemical 2, 2-(3,5-dimethyl-1-pyrazolyl)-4-phenyl-6-hydroxypyrimidine, reference compound], for which the Control Value with Sphaerotheca friliginea amounted to 48.3%; in the series on Cochliobolus miyabeanus, 73%; in the series with Pyricularia oryzae [3], 76%; with Pyricularia oryzae [6], 71%. Moreover, the “activity of controlling rice blast” value in the series on rice blast is “show an activity of controlling rice blast”. Also, the “Degree of chemical injury” value was determined as 1 in the series on cucumber plant, 5 in the series on rice plant [2], 5 in the series on rice plant [4] and 5 with rice plant [5]. The chemical injury entry in series [1] was “violent chemical injury”.
